In patent US20220324925A1, “THERAPEUTIC PEPTIDES” (COHBAR, INC., priority 2019, published 2022):
Where no end group is shown, it is not given here. [ ]: non-standard residue; d: D form.

Key:
[1] = system: 3T3-L1 adipocytes; experiment: Free Fatty Acid Levels in cultured 3T3-L1 Adipocytes; details: for Free Fatty Acid Levels in 3T3-L1 Adipocytes Expressed as a Percent Isoproterenol Control, Percent of Control Value: test peptides 25 μM, 20-22 hours then isoproterenol (1 nM) 3 hours
Description: Following 12-15 days' differentiation, test peptides were added to a final concentration of 25 μM and incubated for 20-22 hours in Adipocyte Maintenance Medium. After 20-22 hours, isoproterenol (1 nM) was added to all wells except untreated controls and test peptides were replenished. Cells were incubated for a further 3 hours in Assay Buffer (Zen-Bio). Free fatty acid concentrations in the media were determined using a Free Fatty Acid Assay Kit (Zen-Bio) according to the manufacturer's instructions using a plate reader (540 nm). Absorbance values were corrected for untreated background and expressed relative to isoproterenol treated cells. Treatment with isoproterenol (1 nM) alone was used as the free fatty acid level stimulatory control. The relative standard deviation of the isoproterenol control was <10%.

[2] = system: MDA-MB-231 cells; experiment: Cell viability, MTS Assay in MDA-MB-231 Cells; details: for MTS Assay in MDA-MB-231 Cells, Percent of Control Activity: 72 hours, relative to DMSO control, concentration not given
[3] = system: MDA-MB-231 cells; experiment: Caspase 3/7 Activity (Caspase-Glo 3/7 Assay) in MDA-MB-231 cells; format: cell-based, human; details: test peptides 10 μM, 18 hours, relative to DMSO control
Description: The effect of the peptides on cell death/survival can be assessed using a caspase-3 assay. […] MDA-MB-231 cells were grown in DMEM Medium supplemented with 10% FBS. […] Luminescence for each sample well on the plate was measured by Envision 2104 Multilabel Reader (PerkinElmer, Santa Clara, Calif.). Activity was calculated relative to DMSO control.

[4] = system: MCF-7 cells; experiment: Cell viability, MTS Assay in MCF-7 Cells; details: test peptides 10 μM, 72 hours, relative to DMSO control

8 (SVWKVAVQTFNCYYYVLQALIN) [compound 8]
Free Fatty Acid Levels in 3T3-L1 Adipocytes Expressed as a Percent Isoproterenol Control, Percent of Control Value [1]: 117%

12 (MVSVLESALGRTRV) [compound 12]
MTS Assay in MDA-MB-231 Cells, Percent of Control Activity [2]: 74%
Caspase 3/7 Activity in MDA-MB-231 Cells, Percent of Control Activity [3]: 44%
MTS Assay in MCF-7 Cells, Percent of Control Activity [4]: 32%
Free Fatty Acid Levels in 3T3-L1 Adipocytes Expressed as a Percent Isoproterenol Control, Percent of Control Value [1]: 124%

18 (RCERYTSIPRSEMVNASIIFM) [compound 18]
Free Fatty Acid Levels in 3T3-L1 Adipocytes Expressed as a Percent Isoproterenol Control, Percent of Control Value [1]: 96%

CN[C@@H]1C[C@H]2O[C@@](C)([C@@H]1OC)n1c3ccccc3c3c4c(c5c6ccccc6n2c5c31)C(=O)NC4 [staurosporine, reference compound]
Cell viability, % of the DMSO control value ([2]; Staurosporine 10 uM, MDA-MB-231 cells, positive control): 3%

14 (VSVLES[dA]LGRTRV) [compound 14]
Free Fatty Acid Levels in 3T3-L1 Adipocytes Expressed as a Percent Isoproterenol Control, Percent of Control Value [1]: 94%

15 (VSVLES[dA]LGRTR[dA]) [compound 15]
Free Fatty Acid Levels in 3T3-L1 Adipocytes Expressed as a Percent Isoproterenol Control, Percent of Control Value [1]: 126%

10 (SVWKV[dA]VQTFNCYYYVLQ[dA]L) [compound 10]
Free Fatty Acid Levels in 3T3-L1 Adipocytes Expressed as a Percent Isoproterenol Control, Percent of Control Value [1]: 46%

3 (PIVLELIPLKIFEIGPVFTL) [compound 3]
Free Fatty Acid Levels in 3T3-L1 Adipocytes Expressed as a Percent Isoproterenol Control, Percent of Control Value [1]: 68%

17 (MRCERYTSIPRSEMVNASIIFM) [compound 17]
MTS Assay in MDA-MB-231 Cells, Percent of Control Activity [2]: 79%
Caspase 3/7 Activity in MDA-MB-231 Cells, Percent of Control Activity [3]: 51%
MTS Assay in MCF-7 Cells, Percent of Control Activity [4]: 54%
Free Fatty Acid Levels in 3T3-L1 Adipocytes Expressed as a Percent Isoproterenol Control, Percent of Control Value [1]: 108%

13 (VSVLESALGRTRV; not fully specified (residue 7)) [compound 13]
Free Fatty Acid Levels in 3T3-L1 Adipocytes Expressed as a Percent Isoproterenol Control, Percent of Control Value [1]: 123%

20 (R[dA]ERYTSIPRSEMVN[dA]SI[dA]F) [compound 20]
Free Fatty Acid Levels in 3T3-L1 Adipocytes Expressed as a Percent Isoproterenol Control, Percent of Control Value [1]: 96%

19 (RCERYTSIPRSEMVN[dA]SIIF) [compound 19]
Free Fatty Acid Levels in 3T3-L1 Adipocytes Expressed as a Percent Isoproterenol Control, Percent of Control Value [1]: 78%

2 (PIVLELIPLKIFEIGPVFTL) [compound 2]
MTS Assay in MDA-MB-231 Cells, Percent of Control Activity [2]: 78%
Caspase 3/7 Activity in MDA-MB-231 Cells, Percent of Control Activity [3]: 99%
MTS Assay in MCF-7 Cells, Percent of Control Activity [4]: 71%
Free Fatty Acid Levels in 3T3-L1 Adipocytes Expressed as a Percent Isoproterenol Control, Percent of Control Value [1]: 92%

insulin [reference compound]
Free fatty acid levels, % of the isoproterenol control value ([1]; insulin 100 nM, positive control): < 5%

9 (SVWKVAVQTFNCYYYVLQAL; not fully specified (residues 6, 19)) [compound 9]
Free Fatty Acid Levels in 3T3-L1 Adipocytes Expressed as a Percent Isoproterenol Control, Percent of Control Value [1]: 134%

7 (MSVWKVAVQTFNCYYYVLQALIN) [compound 7]
MTS Assay in MDA-MB-231 Cells, Percent of Control Activity [2]: 83%
Caspase 3/7 Activity in MDA-MB-231 Cells, Percent of Control Activity [3]: 54%
MTS Assay in MCF-7 Cells, Percent of Control Activity [4]: 64%
Free Fatty Acid Levels in 3T3-L1 Adipocytes Expressed as a Percent Isoproterenol Control, Percent of Control Value [1]: 128%

5 (P[dA]VLELIPLKIFEI[dA]PVFT) [compound 5]
Free Fatty Acid Levels in 3T3-L1 Adipocytes Expressed as a Percent Isoproterenol Control, Percent of Control Value [1]: 84%
